Measurements published in publication PMC6726392 (ACS chemical neuroscience, 2019).

How the values were obtained:
[1] = target: T1, kappa opioid receptor (KOR); human KOR (Homo sapiens, UniProt P41145); test: [3H]diprenorphine competitive displacement, membranes; assay type: binding
[2] = target: delta opioid receptor (DOR); rat DOR (Rattus norvegicus, UniProt P33533); test: as above; assay type: binding
[3] = target: mu opioid receptor (MOR); rat MOR (Rattus norvegicus, UniProt P33535); test: as above; assay type: binding
[4] = target: T1, kappa opioid receptor (KOR); human KOR; test: […]GTPγS binding stimulation, membranes; assay type: biochemical

SMILES | Ki [1] [µM] | Ki [2] [µM] | Ki [3] [µM] | EC50 [4] [µM]
Cc1cc(O)cc(C)c1C[C@H](N)C(=O)N1CCc2c(Cc3ccccc3)cccc2C1 [4a, 5-Bn Dmt-Tiq analogue 4a] | 0.112 | 0.0033 | 0.017 | –
Cc1cc(O)cc(C)c1C[C@H](N)C(=O)N1CCc2cccc(Cc3ccccc3)c2C1 [4d, 8-Bn Dmt-Tiq analogue 4d] | 0.026 | 0.185 | 0.0041 | 0.319
Cc1cc(O)cc(C)c1C[C@H](N)C(=O)N1CCc2ccc(Cc3ccccc3)cc2C1 [4c, 7-Bn Dmt-Tiq analogue 4c] | 0.0039 | 0.0061 | 0.0027 | 0.033
Cc1cc(O)cc(C)c1C[C@H](N)C(=O)N1CCc2cc(Cc3ccccc3)ccc2C1 [4b, 6-Bn Dmt-Tiq analogue 4b] | 0.038 | 0.0043 | 0.0099 | –
